Results taken from US7078389B2, “Chemically modified oligonucleotide for site-directed mutagenesis” (priority 1993, dated 2006).

Legend:
[1] = test system: supF gene within the pSP189 SV40 vector; assay: Sequence analysis and colony hybridization of supF mutants from SV40 vector; design: species or system monkey
Protocol: Colony hybridization. Ampicillin resistant colonies of SY204 carrying shuttle vector plasmids with supF gene mutations, along with appropriate control colonies, were grown on LB/ampicillin plates and transferred onto replica nylon filters for additional growth and in situ lysis to allow colony hybridization by standard methods. The DNA was fixed to the filters by UV crosslinking, and the filters were incubated in 6×SSC, 5×Denhardt's solution, 0.5% SDS, and 5×10^5 cpm/ml of ^32P-labeled oligonucleotides at 42° C. for 18 hours. The filters were washed in 1×SSC and 0.1% SDS for 30 minutes at 25° C. and then in 1×SSC and 0.1% SDS at 42° C. for 2 hours. […] Binding of the oligonucleotide probes was determined by autoradiography.
DNA Sequencing. DNA was prepared for sequencing by isolating DNA from a 3 ml bacterial culture using a Promega Magic Miniprep kit (Promega, Madison, Wis.). DNA sequence data was obtained by direct chain termination sequencing of the plasmid DNA using automated methods.
Sequence analysis of targeted mutations. A set of 20 mutants generated in the supF gene in the SV40 vector by psoralen-AG10 (at the 1000:1 ratio) and UVA light were subjected to DNA sequence analysis.
In the analysis of mutagenesis in SV40 vectors, it is often difficult to determine if identical mutations arose independently or if they were the result of a single mutational event amplified by subsequent vector replication. In order to exclude the possibility that such sibling mutations were isolated in these experiments, use was made of an advantageous feature of the pSP189 system, in which over 100,000 different, random-sequence 8 base pair oligonucleotides were cloned into a region of pSP189 next to the supF gene. The vector DNA is prepared en masse from this library of vector clones containing the different 8 bp sequences. In this way, at the same time that the sequence of the supF gene in a mutant vector is ascertained, the 8 base pair signature sequence in that particular plasmid molecule can also be identified by reading a few extra bases further in the sequence data. This enables comparisons between the 8 bp signature sequences in plasmids bearing the same supF mutation to see if they are siblings from the same mutational event or if they are independent mutations.
Instead of direct sequencing, a technique of differential oligonucleotide hybridizations was used (Sidransky et al., Science 252:706–709 (1991)). In this assay, undertaken in an effort to streamline mutant analysis, ampicillin resistant bacterial colonies containing mutant supF genes were grown on nylon filters to allow nucleic acid hybridizations.

[2] = test system: supF gene contained within the chromosomes of the LN12 cells; assay: Targeted mutagenesis in mouse fibroblast LN12 cells; type: cell-based
From the text: For the purposes of achieving targeted mutagenesis in mouse cells in vivo, the assay system to detect mutations in the chromosomes of mouse fibroblasts in culture developed by Glazer et al. was used (Proc. Natl. Acad. Sci. USA 83:1041–1044, (1986), which is incorporated by reference herein). This system allows detection and analysis of mutations occurring in the supF gene contained within the chromosomes of the LN12 cells, a derivative of mouse L cells into whose chromosomes multiple copies of the lambda supF shuttle vector were inserted.
The LN12 cells, growing in culture, were treated with the oligonucleotide, psoralen-AG10, which is designed to target mutations to base pair 167 in the supF gene via sequence-specific triplex formation and thereby delivery of the psoralen to that site. This oligonucleotide was used also in the lambda and the SV40 experiments. The oligonucleotide was added directly to the growth medium of the cells at various concentrations in the range of 0.1 to 50 μM. Two hours later, the cells were exposed to 0.07 J/cm^2 of UVA irradiation, the cells were allowed to grow for an additional 2 to 4 days, and then DNA was prepared from the cells to analyze for mutations in the supF gene. Using lambda in vitro packaging extracts to rescue the supF gene in the lambda vector from within the mouse DNA (as described by Glazer et al., cited above), mutations were detected in approximately 0.05% of the supF genes. Over forty mutant supF genes have been isolated in these recent experiments (from all concentrations of oligonucleotide studied), but the sequence of only one has been determined so far.

[3] = test system: supF gene within the SV40 vector pSP189; assay: Hinf I restriction enzyme protection assay, SV40 vector DNA target; type: binding; settings: vector 50 nM
Protocol: The binding and irradiation were carried out as described above, except that pSP189 was used as the supF target at a concentration of 50 nM and psoralen-AG10 was added at ratios of oligomer to vector of from 1:1 to 1000:1. Irradiation and gel conditions were as described above.
Similar experiments were performed to assay for site-specific binding of psoralen-AG10 to bp 167–176 in the supF gene within the SV40 vector itself. In these experiments, varying ratios of oligonucleotide to vector DNA were employed in order to examine basic parameters of the triplex binding to the viral genome. […] Binding of psoralen-AG10 as a triple strand to bp 167–176 of the supF gene within the SV40 vector was assayed by examining protection from Hinf I digestion at bp 164–168, as diagrammed in FIG. 4. The SV40 vector containing the supF target gene (50 nM) was incubated with psoralen-AG10 at ratios of oligomer to vector of from 1:1 to 1000:1, irradiated with 1.8 J/cm^2 of UVA, digested with Hinf I, and run on a 4.5% Nusieve gel. Because the sequences flanking the supF gene in the SV40 DNA differ from those in the PCR fragment, and since there are multiple Hinf I sites in SV40, the pattern of bands is more complex.

4′-hydroxymethyl-4,5′,8-trimethylpsoralen-^5′AGGAAGGGGG^3′ (DNA NAGGAAGGGGG; 4'-hydroxymethyl-4,5',8-trimethylpsoralen conjugated at 5' end, further chemistry not given here) [pso-AG10]
Share of sequenced mutations with the same base change at the targeted base pair ([1]; 20 mutants, 1000:1 ratio, UVA, DNA sequencing): 55%
Share of mutants carrying the T:A to A:T mutation at bp 167 ([1]; 42 mutants, colony hybridization): 52%
Share of all viral genomes with intended base change (T:A to A:T at bp 167) ([1]; 1000:1 ratio, UVA): over 4%
Number of colonies with hybridization specific to the 167 mutant probe ([1]; of 19 colonies assayed, colony hybridization): 9
Number of sequenced mutations with T:A to A:T transversion at base pair 167 ([1]; of 20 mutants, 1000:1 ratio, UVA, DNA sequencing): 11
Number of point mutations at base pairs adjacent to the targeted base pair ([1]; of 20 sequenced mutants): 3
Number of small deletions including or abutting the targeted base pair ([1]; of 20 sequenced mutants): 6
Number of mutants carrying the T:A to A:T mutation at bp 167 ([1]; of 42 mutants, colony hybridization (including 20 sequenced)): 22
Share of mutations that are the same T:A to A:T transversion, data taken together ([1]; sequencing and hybridization together): at least 50%
Share of supF genes with mutations ([2]; 0.1 to 50 μM in growth medium, 2 hours, UVA 0.07 J/cm^2, 2 to 4 days growth): approximately 0.05%
Relation of supF mutation frequency to oligonucleotide concentration ([2]; 0.1 to 50 μM, FIG. 6): dose-response relationship
Sequence of the one supF mutant determined ([2]; LN12 cells): T:A to A:T transversion exactly at the targeted base pair
Hinf I protection at the targeted site ([3]; oligomer to vector 1:1, UVA 1.8 J/cm^2): only partial protection
Hinf I protection at the targeted site ([3]; oligomer to vector 2:1, UVA 1.8 J/cm^2): only partial protection
Hinf I protection at the targeted site ([3]; oligomer to vector 10:1, UVA 1.8 J/cm^2): almost complete
Hinf I protection at the targeted site ([3]; oligomer to vector 100:1, UVA 1.8 J/cm^2): near complete protection
Hinf I protection at the targeted site ([3]; oligomer to vector 1000:1, UVA 1.8 J/cm^2): near complete protection
